In paper PMC11345766, “Computational Design of Pore-Forming Peptides with Potent Antimicrobial and Anticancer Activities” (Journal of Medicinal Chemistry, 2024):
Ends that are not written are not given here.

Assays:
[1] = AFM imaging of supported lipid bilayers; details: P:L 1:500 (1 μM peptide)
Protocol: The SLBs were composed of POPC:POPG (1:1 mol/mol) lipids, the same composition used in the dye leakage assay. […] The pores were stable for an investigation period of 2 h and were visibly more numerous than those produced by LP1.[29]
Effects of peptides on the SLBs composed of POPC:POPG (1:1 mol/mol) lipids was investigated using AFM. LUVs were prepared in lipid dissolution buffer (50 mM Tris–HCl and 50 mM KCl) following a dye leakage assay protocol without calcein. Vesicles were sonicated for 30 min at 25 °C and extruded through a 50 nm pore size filter to form small unilamellar vesicles (SUVs). Following the vesicle deposition method,[103] SLBs were formed on mica using SUVs in SLB-forming buffer (50 mM Tris–HCl and 300 mM KCl) and 5 mM CaCl2, mounting a total volume of 150 μL on mica. After 1 h incubation at 25 °C, mica was washed 10 times with SLB-forming buffer and subjected to AFM analysis. The investigated P:L ratio was 1:500 (mol/mol). Bruker Dimension Icon AFM (USA) equipped with a PeakForce-HIRS-F-B silicon nitride probe (spring constant 0.12 N/m) was used to capture topographic images. PeakForce Quantitative NanoMechanic hybrid mode was used with 2 kHz frequency and 25 nm amplitude using set point <100 pN. The scan rate was 1 Hz using 512 samples/line. […]

[2] = test system: MCF-7 cells; test: Immunoblotting of cleaved PARP and caspase-3; assay type: cell-based, human; details: 1 h treatment; media of different pH
Protocol: Furthermore, immunoblotting detection of cleaved PARP and caspase-3 markers confirmed the induction of apoptosis in MCF-7 cells by the peptides (Figure S10c).
MCF-7 cells were seeded at 2.5 × 10^5 cells/well in a 24-well plate 1 day before the experiment. Cells were treated with either peptides or PBS alone (negative control) and cultured in different media for 1 h. Cells were lysed using a buffer consisting of 1% SDS, 50 mM Tris–HCl (pH 6.8), and 10% glycerol with phosphatase and protease inhibitors. The protein concentration was determined by using the DC Protein Assay (Bio-Rad). Proteins were separated by SDS-PAGE and transferred to the PVDF membrane with a 0.45 μm pore size. The membranes were incubated with primary antibodies to detect cleaved PARP (no. 5625, 1:1000, Cell Signaling), total PARP (no. 9542, 1:2000, Cell Signaling), cleaved caspase-3 (no. 9664, 1:1000, Cell Signaling), or β-actin (no. 4970, 1:2000; Cell Signaling). Secondary HRP-linked antirabbit antibody (1:2000, Cell Signaling) was used to detect primary antibodies. Signal was detected using Clarity Western ECL Substrate (BioRad) and UVITEC Alliance (Uvitec).

[3] = test system: panel of 20 different human cancer and 2 noncancerous cell lines; assay type: cell-based; details: 72 h
Protocol: First, we tested LP40 and LP1 for anticancer activity at the physiological pH. The peptides were screened against a panel of 20 different human cancer and 2 noncancerous cell lines using a CellTiter-Glo luminescent cell viability assay (Figure 6b). […] For few exceptional cell lines, the activity of LP40 was below 10 μM.
The CellTiter-Glo luminescent cell viability assay examining the impact of peptides on 22 different human cell lines was purchased from Reaction Biology Europe GmbH (Germany). Cells were cultured in different media (Table S1), seeded into a flat-bottom 96-well plate, and incubated at 37 °C. After overnight incubation, test compounds were added with 1% PBS/0.3% Tween 20 and the reference compound bortezomib was added with 0.1% DMSO. Negative controls were solvents alone, and positive control was 10 μM staurosporine. After 72 h of incubation at 37 °C, 5 or 10% CO2 (dependent on the medium), and 1 h equilibration at room temperature, well plates were treated with CellTiter-Glo reagent (Promega) for an hour and luminescence was measured using a luminometer.

Row | Substance | Membrane defects or pores formed on SLBs [1] | Cleaved PARP and caspase-3 (apoptosis) [2] | IC50 [3] [µM]
1 | KKKKLKKILKKLFQFINQLDNQLQDIKKKK-NH2 [LP18] | significantly higher number of membrane defects or pores than LP1 | – | –
2 | H-HHHHLKKILKKLFQFINQLDNQLQDIHHHH-OH [LP40] | – | higher at pH 6 | > 100
